From patent US20250326748A1, “COMPOUNDS AND METHODS FOR MODULATING SPLICING” (REMIX THERAPEUTICS INC., priority 2022, published 2025)
Structures can show the parent of a compound that is named as a salt. Where two headings read alike, the source gives them in different places.

Columns and labels:
K562 cells = assay: Cell viability, Cell Titer Glo 2.0 assay, K562; conditions: 72 hours
Experimental: Compounds described herein were screened for toxicity in K562 (human chronic myelogenous leukemia) and SH-SY5Y (human neuroblastoma) cells using a Cell Titer Glo 2.0 assay.
• Promega CellTiter-Glo® 2.0 Cell Viability Assay (cat #G9241) • Corning 384-well TC-treated microplates (cat #3570)
Cells were plated at 500 cells/well (K562 cells) in 45 μL of IMDM supplemented with 10% FBS in a 384-well opaque plate. Wells containing only medium were used as a blank control. Test compounds (e.g., compounds of Formula (I) or (II)) were first serially diluted in DMSO then diluted 1:100 with IMDM+10% FBS. The final concentration of DMSO was 0.1% in each well. The cells were incubated for 72 hours at 37° C. and 5% CO2 before assaying with Cell Titer Glo 2.0 reagent.

Target C mRNA = assay: Splicing RT-qPCR panel, Target C canonical junction (CJ) mRNA; assay type: cell-based, human; conditions: read-out: Target C CJ (decrease in CJ mRNA levels, IC50)
In short: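 A673 cells (DMEM, 10% FBS) or K562 cells (IMDM, 10% FBS) treated 24 h at 37 °C with an 11-point 3-fold dilution, top 10 uM, DMSO ≤0.25%. Canonical-junction mRNA quantified in lysates by RT-qPCR, normalised to GAPDH, GUSB or PPIA and to DMSO (2^−ΔΔCt), then converted to % response.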

HiBiT-tagged HTT protein = assay: HiBiT protein abundance assay, HTT (K562 HiBiT knock-in); assay type: cell-based, human; conditions: HiBiT knock-in cells, 24 hours
Experimental: Compounds described herein were used to screen for effects on quantitative protein abundance using a HiBit assay system (Promega). Quantitative protein abundance was determined by measuring the protein levels of HiBit-tagged protein targets expressed in cell culture via luminescence using the Nano-Glo HiBiT Lytic Detection System, which uses a split complementation assay format to reconstitute NanoBiT enzyme to generate a luminescent signal. A protein abundance assay was developed such that endogenous protein targets could be modified with the HiBiT peptide tag and their abundance could be assessed after compound treatment. Briefly, K562 cell lines containing a HiBiT-modification were treated with various compounds described herein (e.g., compounds of Formulas (I), or (II)). After treatment for 24 hours, the protein abundance of a specific target was determined by measuring luminescence.
• Promega Nano-Glo HiBiT Lytic Detection System (cat #N3030) • Corning 384-well TC-treated microplates (cat #3570)
(§1) Cells were maintained in IMDM with 10% FBS. Before the assay, cells were diluted with […] growth media (IMDM+1% FBS media) and were seeded in a 384-well plate at a density of 10000 cells/well (for each cell line listed in Table 6). Each compound was prepared as a 10-point 3-old serial dilution in DMSO with the top dose at a final concentration of 10 μM in the well. Unmodified K562 cells were added at the previously specified density with DMSO to serve as an assay baseline and positive control (PC) and DMSO only with the respective modified cell lines was added to the negative control (NC) columns. Final DMSO concentration was kept at or below 0.25%. Treated cell plates were placed in an incubator at 37° C. with 5% CO2 for 24 hours. After 24 hours, 25 μL of Complete HiBit Lytic reagent was added to each well at room temperature (e.g. one plate requiring 10 ml Lytic Buffer, 100 μL LgBiT Protein, 200 μL Lytic Substrate), shaken for 5 minutes at 600 RPM, then left to sit for 10 minutes for signal to stabilize before reading on a Spark Cyto plate reader (Tecan) with a 500 ms measurement time.
(§2) To determine compound effects on protein abundance of each target in Table 6, the percent response for each respective cell line was calculated at each compound concentration as follows:
(§3) For the normalized response at each concentration, a four-parameter logistical regression was fit to the data and the response was interpolated at the 50% value to determine a concentration for protein abundance at 50% (IC50) the untreated control.

Target C = assay: HiBiT protein abundance assay, Target C (K562 HiBiT knock-in); assay type: cell-based, human; conditions: HiBiT knock-in cells, 24 hours
Experimental: as §1, §2, §3

SMILES	Effect on Cell Viability, K562 (K562 cells)	IC50 (Target C mRNA; Homo sapiens)	IC50 (HiBiT-tagged HTT protein)	IC50 (Target C)	IC50 (Target C mRNA)
CN[C@H]1CN(c2cnc3nc(-c4cc5cn(C)nc5c(C)c4O)ccc3c2)C[C@@H]1C [Compound 127, 2,7-dimethyl-5-{6-[(3S,4R)-3-methyl-4-(methylamino)384pyrrolidine-1-yl]-1,8-naphthyridin-2-yl}indazol-6-ol]	A (<100 nM)	100 to 1000 nM	< 100 nM	100 to 1000 nM	–
CN[C@@H]1CN(c2cnc3nc(-c4cc5cn(C)nc5c(C)c4O)ccc3c2)C[C@@H]1C [Compound 128]	A (<100 nM)	100 to 1000 nM	100 to 1000 nM	100 to 1000 nM	–
CN[C@H]1CN(c2cnc3nc(-c4cc5cn(C)nc5c(C)c4O)ccc3c2)C[C@H]1F [Compound 129, 5-{6-[(3R,4S)-3-fluoro-4-(methylamino)pyrrolidin-1-yl]-1,8-naphthyridin-2-yl}-2,7-dimethylindazol-6-ol]	B (100-1000 nM)	100 to 1000 nM	100 to 1000 nM	100 to 1000 nM	–
CN[C@@H]1CN(c2cnc3nc(-c4cc5cn(C)nc5c(C)c4O)ccc3c2)C[C@@H]1F [Compound 132, 5-{6-[(3S,4R)-3-fluoro-4-(methylamino)pyrrolidin-1-yl]-1,8-naphthyridin-2-yl}-2,7-dimethylindazol-6-ol]	B (100-1000 nM)	100 to 1000 nM	100 to 1000 nM	100 to 1000 nM	–
Cn1cc2cc(-c3cnc4nc(N5CCC(NC(C)(C)C)C5)ccc4c3)c(O)cc2n1 (stereo not drawn) [Compound 133, 5-{7-[3-(tert-butylamino)pyrrolidin-1-yl]-1,8-naphthyridin-3-yl}-2-methylindazol-6-ol]	D (greater than 10 μM)	> 10000 nM	100 to 1000 nM	1000 to 10000 nM	–
Cn1cc2cc(-c3ccc4cc(N5CCC(NC(C)(C)C)C5)cnc4n3)c(O)cc2n1 (stereo not drawn) [Compound 134, 5-{6-[3-(tert-butylamino)pyrrolidin-1-yl]-1,8-naphthyridin-2-yl}-2-methylindazol-6-ol hydrochloride]	B (100-1000 nM)	100 to 1000 nM	100 to 1000 nM	100 to 1000 nM	–
Cn1cc2cc(-c3ccc4cc(N5CC[C@@H](NCC6CC6)C5)cnc4n3)c(O)c(F)c2n1 [Compound 135, 5-{6-[(3R)-3-[(cyclopropylmethyl)amino]330pyrrolidine-1-yl]-1,8-naphthyridin-2-yl}-7-fluoro-2-methylindazol-6-ol]	A (<100 nM)	100 to 1000 nM	< 100 nM	< 100 nM	–
Cn1cc2cc(-c3ccc4cc(N5CC[C@H](NCC6CC6)C5)cnc4n3)c(O)c(F)c2n1 [Compound 136, 5-{6-[(3S)-3-[(cyclopropylmethyl)amino]326pyrrolidine-1-yl]-1,8-naphthyridin-2-yl}-7-fluoro-2-methylindazol-6-ol]	A (<100 nM)	1000 to 10000 nM	100 to 1000 nM	100 to 1000 nM	–
Cc1c(O)c(-c2ccc3cc(N4CCNCC4)cnc3n2)cc2cn(C)nc12 [Compound 137, 2,7-dimethyl-5-[6-(piperazin-1-yl)-1,8-naphthyridin-2-yl]indazol-6-ol]	B (100-1000 nM)	100 to 1000 nM	100 to 1000 nM	100 to 1000 nM	–
Cc1c(O)c(-c2ccc3cc(N4CCC(N(C)C)CC4)cnc3n2)cc2cn(C)nc12 [Compound 138, 5-{6-[4-(dimethylamino)piperidin-1-yl]-1,8-naphthyridin-2-yl}-2,7-dimethylindazol-6-ol]	A (<100 nM)	1000 to 10000 nM	100 to 1000 nM	1000 to 10000 nM	–
CNC1CCN(c2cnc3nc(-c4cc5cn(C)nc5c(C)c4O)cc(Cl)c3c2)C1 (stereo not drawn) [Compound 142, 5-{4-chloro-6-[3-(methylamino)351pyrrolidine-1-yl]-1,8-naphthyridin-2-yl}-2,7-dimethylindazol-6-ol]	A (<100 nM)	100 to 1000 nM	< 100 nM	100 to 1000 nM	–
Cc1c(O)c(-c2cc(Cl)c3cc(N4CCC(N(C)C)C4)cnc3n2)cc2cn(C)nc12 (stereo not drawn) [Compound 143, 5-{4-chloro-6-[3-(dimethylamino)357pyrrolidine-1-yl]-1,8-naphthyridin-2-yl}-2,7-dimethylindazol-6-ol]	B (100-1000 nM)	100 to 1000 nM	100 to 1000 nM	100 to 1000 nM	–
Cc1c(O)c(-c2cc(Cl)c3cc(NC4CCNC4)cnc3n2)cc2cn(C)nc12 (stereo not drawn) [Compound 146, 5-[4-chloro-6-(359pyrrolidine-3-ylamino)-1,8-naphthyridin-2-yl]-2,7-dimethylindazol-6-ol]	B (100-1000 nM)	1000 to 10000 nM	100 to 1000 nM	100 to 1000 nM	–
Cc1c(O)c(-c2cc(Cl)c3cc(N4CCNC(C)C4)cnc3n2)cc2cn(C)nc12 (stereo not drawn) [Compound 147]	B (100-1000 nM)	1000 to 10000 nM	100 to 1000 nM	1000 to 10000 nM	–
Cc1c(O)c(-c2cc(Cl)c3cc(N4C[C@@H](C)N[C@@H](C)C4)cnc3n2)cc2cn(C)nc12 [Compound 149]	B (100-1000 nM)	–	100 to 1000 nM	100 to 1000 nM	1000 to 10000 nM
CNC(=O)c1cc(-c2cc3cn(C)nc3c(C)c2O)nc2ncc(N3CCNCC3)cc12 [Compound 150, 2-(6-hydroxy-2,7-dimethylindazol-5-yl)-N-methyl-6-(piperazin-1-yl)-1,8-naphthyridine-4-carboxamide]	D (greater than 10 μM)	> 10000 nM	> 10000 nM	> 10000 nM	–
Cc1cn2cc(-c3cc(Cl)c4cc(N5CCNCC5)cnc4n3)cc(F)c2n1 [Compound 153, 4-chloro-2-{8-fluoro-2-methylimidazo[1,2-a]pyridin-6-yl}-6-(piperazin-1-yl)-1,8-naphthyridine]	B (100-1000 nM)	1000 to 10000 nM	100 to 1000 nM	1000 to 10000 nM	–
CN[C@H]1CCN(c2cnc3nc(-c4cc5cn(C)nc5c(F)c4O)cc(Cl)c3c2)C1 [Compound 272]	A (<100 nM)	100 to 1000 nM	< 100 nM	< 100 nM	–
Cn1cc2cc(-c3cc(Cl)c4cc(N5CCNC6(CC6)C5)cnc4n3)c(O)c(F)c2n1 [Compound 274]	B (100-1000 nM)	1000 to 10000 nM	100 to 1000 nM	100 to 1000 nM	–
CN(c1cnc2nc(-c3cc4cn(C)nc4c(F)c3O)cc(Cl)c2c1)[C@H]1CCNC1 [Compound 275]	A (<100 nM)	1000 to 10000 nM	100 to 1000 nM	1000 to 10000 nM	–
CN(c1cnc2nc(-c3cc4cn(C)nc4c(F)c3O)cc(Cl)c2c1)[C@@H]1CCNC1 [Compound 276]	A (<100 nM)	1000 to 10000 nM	100 to 1000 nM	100 to 1000 nM	–
